# Data taken from article PMC9736855, “Discovery of 3-Amino-1H-pyrazole-Based Kinase Inhibitors to Illuminate the Understudied PCTAIRE Family” (International Journal of Molecular Sciences, 2022).
# How the values were obtained:
# Assay in all cases: DSF
# Type in all cases: binding
# MAPK10 = molecular target: T1, MAPK10 (Homo sapiens, UniProt P53779);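 further: compound tested at 10 µM with 2 µM protein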
# T1 construct: purchased in-house DSF panel (SGC Frankfurt)
# Description: (§1) Recombinant protein kinase domains with a concentration of 2 μM were mixed with a 10 μM compound solution in DMSO, 20 mM HEPES, pH 7.5, and 500 mM NaCl. SYPRO Orange (5000×, Invitrogen) was added as a fluorescence probe (1 µl per mL). Subsequently, temperature-dependent protein unfolding profiles were measured, using the QuantStudio™ 5 realtime PCR machine (Thermo Fisher, Waltham, MA, USA). […] The temperature was raised with a step rate of 3 °C per minute. Data points were analyzed with the internal software (Thermal Shift SoftwareTM Version 1.4, Thermo Fisher) using the Boltzmann equation to determine the inflection point of the transition curve [56]. Differences in melting temperature are given as ΔTm values in °C. Measurements were performed in duplicates.
# CSNK1D = molecular target: T2, CSNK1D (Homo sapiens, UniProt P48730);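 further: compound tested at 10 µM with 2 µM protein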
# T2 construct: purchased in-house DSF panel (SGC Frankfurt)
# T2 sequence (P48730 1-294): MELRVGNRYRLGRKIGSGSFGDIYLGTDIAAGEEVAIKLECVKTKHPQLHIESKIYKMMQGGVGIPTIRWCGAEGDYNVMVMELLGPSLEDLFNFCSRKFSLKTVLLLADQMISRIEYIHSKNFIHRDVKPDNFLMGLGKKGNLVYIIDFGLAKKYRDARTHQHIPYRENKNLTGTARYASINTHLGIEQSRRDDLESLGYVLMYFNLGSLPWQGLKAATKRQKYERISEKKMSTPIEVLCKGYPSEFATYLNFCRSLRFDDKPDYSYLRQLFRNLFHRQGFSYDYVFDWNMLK
# Description: as §1
# MAPK9 = molecular target: T3, MAPK9 (Homo sapiens, UniProt P45984);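 further: compound tested at 10 µM with 2 µM protein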
# T3 construct: purchased in-house DSF panel (SGC Frankfurt)
# T3 sequence (P45984 1-364): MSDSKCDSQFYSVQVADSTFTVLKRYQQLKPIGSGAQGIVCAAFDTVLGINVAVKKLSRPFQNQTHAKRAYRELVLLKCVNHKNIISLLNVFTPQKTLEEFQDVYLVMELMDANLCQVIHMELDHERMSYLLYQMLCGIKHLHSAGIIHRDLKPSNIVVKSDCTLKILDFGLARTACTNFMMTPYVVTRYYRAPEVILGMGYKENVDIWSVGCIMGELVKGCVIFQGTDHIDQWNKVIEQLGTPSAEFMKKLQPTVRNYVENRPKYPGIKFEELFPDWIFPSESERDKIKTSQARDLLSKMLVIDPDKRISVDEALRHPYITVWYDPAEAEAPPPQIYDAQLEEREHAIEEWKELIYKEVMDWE
# Description: as §1
# TTK = molecular target: T4, TTK (Homo sapiens, UniProt P33981);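 further: compound tested at 10 µM with 2 µM protein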
# T4 construct: purchased in-house DSF panel (SGC Frankfurt)
# T4 sequence (P33981 519-808): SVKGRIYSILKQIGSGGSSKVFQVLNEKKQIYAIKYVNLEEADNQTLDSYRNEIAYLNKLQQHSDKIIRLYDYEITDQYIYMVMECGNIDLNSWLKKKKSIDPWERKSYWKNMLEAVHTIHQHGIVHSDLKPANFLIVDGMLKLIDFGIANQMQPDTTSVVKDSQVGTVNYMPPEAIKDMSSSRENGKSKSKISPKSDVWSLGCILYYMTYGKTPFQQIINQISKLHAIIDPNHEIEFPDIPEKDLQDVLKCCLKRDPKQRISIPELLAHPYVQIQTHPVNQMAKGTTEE
# Description: as §1
# CLK1 = molecular target: T5, CLK1 (Homo sapiens, UniProt P49759);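 further: compound tested at 10 µM with 2 µM protein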
# T5 construct: purchased in-house DSF panel (SGC Frankfurt)
# T5 sequence (P49759 148-484): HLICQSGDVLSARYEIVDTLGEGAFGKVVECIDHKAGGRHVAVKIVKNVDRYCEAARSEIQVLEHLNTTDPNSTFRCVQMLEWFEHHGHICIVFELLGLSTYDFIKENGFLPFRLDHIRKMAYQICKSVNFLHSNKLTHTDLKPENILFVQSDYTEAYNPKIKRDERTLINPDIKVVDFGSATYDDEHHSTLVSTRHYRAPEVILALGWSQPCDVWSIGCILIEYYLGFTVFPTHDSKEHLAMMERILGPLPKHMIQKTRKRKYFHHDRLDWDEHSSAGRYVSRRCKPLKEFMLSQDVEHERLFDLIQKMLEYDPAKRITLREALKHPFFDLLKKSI
# Description: as §1
# BRD4 = molecular target: T6, BRD4 (Homo sapiens, UniProt O60885)
# T6 construct: purchased in-house DSF panel (SGC Frankfurt)
# EPHA5 = molecular target: T7, EPHA5 (Homo sapiens, UniProt P54756);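 further: compound tested at 10 µM with 2 µM protein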
# T7 construct: purchased in-house DSF panel (SGC Frankfurt)
# T7 sequence (P54756 653-939): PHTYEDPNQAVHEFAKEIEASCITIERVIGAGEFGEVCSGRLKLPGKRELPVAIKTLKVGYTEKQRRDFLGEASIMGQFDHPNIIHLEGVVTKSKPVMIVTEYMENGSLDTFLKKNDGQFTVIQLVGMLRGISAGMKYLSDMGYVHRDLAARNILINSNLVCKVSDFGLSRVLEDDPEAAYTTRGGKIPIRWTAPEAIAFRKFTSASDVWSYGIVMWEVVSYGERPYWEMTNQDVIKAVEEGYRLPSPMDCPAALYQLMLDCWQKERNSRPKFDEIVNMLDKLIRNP
# Description: as §1
# PIM3 = molecular target: T8, PIM3 (Homo sapiens, UniProt Q86V86);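 further: compound tested at 10 µM with 2 µM protein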
# T8 construct: purchased in-house DSF panel (SGC Frankfurt)
# Description: as §1
# FGFR2 = molecular target: T9, FGFR2 (Homo sapiens, UniProt P21802);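 further: compound tested at 10 µM with 2 µM protein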
# T9 construct: purchased in-house DSF panel (SGC Frankfurt)
# T9 sequence (P21802 458-770): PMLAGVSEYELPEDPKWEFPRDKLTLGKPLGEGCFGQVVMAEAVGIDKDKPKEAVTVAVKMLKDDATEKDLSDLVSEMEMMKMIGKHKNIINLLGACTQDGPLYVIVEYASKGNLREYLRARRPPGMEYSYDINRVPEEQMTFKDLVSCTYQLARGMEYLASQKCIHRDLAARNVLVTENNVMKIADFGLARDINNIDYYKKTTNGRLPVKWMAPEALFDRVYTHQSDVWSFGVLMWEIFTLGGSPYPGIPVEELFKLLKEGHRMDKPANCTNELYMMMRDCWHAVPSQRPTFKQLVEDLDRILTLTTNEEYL
# Description: as §1
# AKT3 = molecular target: T10, AKT3 (Homo sapiens, UniProt Q9Y243)
# T10 construct: purchased in-house DSF panel (SGC Frankfurt)
# T10 sequence (Q9Y243 148-479): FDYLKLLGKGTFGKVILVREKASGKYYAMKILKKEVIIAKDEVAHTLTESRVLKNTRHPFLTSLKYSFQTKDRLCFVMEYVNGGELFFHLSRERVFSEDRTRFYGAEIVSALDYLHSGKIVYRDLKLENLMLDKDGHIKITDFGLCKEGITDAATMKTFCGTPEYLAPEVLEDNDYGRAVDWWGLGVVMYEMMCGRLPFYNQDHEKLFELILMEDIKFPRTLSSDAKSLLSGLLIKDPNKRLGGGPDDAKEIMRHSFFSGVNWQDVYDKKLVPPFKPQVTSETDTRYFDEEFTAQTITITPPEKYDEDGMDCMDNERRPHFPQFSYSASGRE
# Description: as §1
# TAF1 = test system: TAF1;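 further: compound tested at 10 µM with 2 µM protein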
# Description: as §1
# UKL3 = molecular target: T11, UKL3 (Homo sapiens, UniProt Q6PHR2);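 further: compound tested at 10 µM with 2 µM protein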
# T11 construct: purchased in-house DSF panel (SGC Frankfurt)
# T11 sequence (Q6PHR2 1-279): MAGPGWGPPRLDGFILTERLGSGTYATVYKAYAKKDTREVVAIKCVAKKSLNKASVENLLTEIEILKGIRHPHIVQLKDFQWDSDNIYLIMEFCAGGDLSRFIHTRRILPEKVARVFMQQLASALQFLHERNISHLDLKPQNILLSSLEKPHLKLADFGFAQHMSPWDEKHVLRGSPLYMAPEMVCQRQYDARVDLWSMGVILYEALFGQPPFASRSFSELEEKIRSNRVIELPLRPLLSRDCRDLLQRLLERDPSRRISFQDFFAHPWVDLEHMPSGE
# Description: as §1
# RPS6KA1 = test system: RPS6KA1;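 further: compound tested at 10 µM with 2 µM protein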
# Description: as §1
# CK2A2 = molecular target: T12, CK2A2 (Homo sapiens, UniProt P19784);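 further: compound tested at 10 µM with 2 µM protein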
# T12 construct: purchased in-house DSF panel (SGC Frankfurt)
# T12 sequence (P19784 whole entry): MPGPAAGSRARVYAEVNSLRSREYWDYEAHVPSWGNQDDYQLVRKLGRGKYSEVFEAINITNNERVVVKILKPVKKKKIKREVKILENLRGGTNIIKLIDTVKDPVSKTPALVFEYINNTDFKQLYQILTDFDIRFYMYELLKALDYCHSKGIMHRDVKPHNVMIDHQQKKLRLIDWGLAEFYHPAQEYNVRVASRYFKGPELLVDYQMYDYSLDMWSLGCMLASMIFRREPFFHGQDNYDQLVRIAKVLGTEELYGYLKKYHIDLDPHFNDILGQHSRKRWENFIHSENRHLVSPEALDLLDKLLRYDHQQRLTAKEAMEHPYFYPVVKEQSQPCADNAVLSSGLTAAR
# Description: as §1
# CAMK2D = molecular target: T13, CAMK2D (Homo sapiens, UniProt Q13557);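 further: compound tested at 10 µM with 2 µM protein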
# T13 construct: purchased in-house DSF panel (SGC Frankfurt)
# T13 sequence (Q13557 11-309): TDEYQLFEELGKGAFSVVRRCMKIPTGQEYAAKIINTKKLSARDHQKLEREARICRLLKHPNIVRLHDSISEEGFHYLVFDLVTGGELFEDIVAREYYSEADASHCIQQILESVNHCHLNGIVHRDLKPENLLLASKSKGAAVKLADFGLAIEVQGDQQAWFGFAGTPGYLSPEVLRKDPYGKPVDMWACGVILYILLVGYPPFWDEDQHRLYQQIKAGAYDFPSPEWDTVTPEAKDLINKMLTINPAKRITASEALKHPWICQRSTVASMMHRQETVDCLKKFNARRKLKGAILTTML
# Description: as §1
# SRC = molecular target: T14, SRC (Homo sapiens, UniProt P12931);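 further: compound tested at 10 µM with 2 µM protein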
# T14 construct: purchased in-house DSF panel (SGC Frankfurt)
# T14 sequence (P12931 254-536): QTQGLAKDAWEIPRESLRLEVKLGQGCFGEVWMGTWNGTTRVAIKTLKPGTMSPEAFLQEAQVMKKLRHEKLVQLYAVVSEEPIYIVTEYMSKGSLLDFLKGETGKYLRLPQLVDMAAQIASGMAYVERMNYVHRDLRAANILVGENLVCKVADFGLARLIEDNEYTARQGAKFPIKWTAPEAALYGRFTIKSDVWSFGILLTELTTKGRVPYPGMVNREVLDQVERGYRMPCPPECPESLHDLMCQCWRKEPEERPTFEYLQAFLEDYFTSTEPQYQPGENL
# Description: as §1
# FGFR3 = molecular target: T15, FGFR3 (Homo sapiens, UniProt P22607)
# T15 construct: purchased in-house DSF panel (SGC Frankfurt)
# T15 sequence (P22607 455-768): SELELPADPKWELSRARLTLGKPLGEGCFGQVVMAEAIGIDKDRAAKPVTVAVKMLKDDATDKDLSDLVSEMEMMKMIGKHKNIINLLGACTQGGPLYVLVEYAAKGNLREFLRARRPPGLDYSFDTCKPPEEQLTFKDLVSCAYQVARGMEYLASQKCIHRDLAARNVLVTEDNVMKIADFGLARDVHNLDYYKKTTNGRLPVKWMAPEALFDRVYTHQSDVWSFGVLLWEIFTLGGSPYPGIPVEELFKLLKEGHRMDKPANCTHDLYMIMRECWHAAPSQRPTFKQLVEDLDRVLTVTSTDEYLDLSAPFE
# Description: as §1
# T1 sequence (P53779 whole entry): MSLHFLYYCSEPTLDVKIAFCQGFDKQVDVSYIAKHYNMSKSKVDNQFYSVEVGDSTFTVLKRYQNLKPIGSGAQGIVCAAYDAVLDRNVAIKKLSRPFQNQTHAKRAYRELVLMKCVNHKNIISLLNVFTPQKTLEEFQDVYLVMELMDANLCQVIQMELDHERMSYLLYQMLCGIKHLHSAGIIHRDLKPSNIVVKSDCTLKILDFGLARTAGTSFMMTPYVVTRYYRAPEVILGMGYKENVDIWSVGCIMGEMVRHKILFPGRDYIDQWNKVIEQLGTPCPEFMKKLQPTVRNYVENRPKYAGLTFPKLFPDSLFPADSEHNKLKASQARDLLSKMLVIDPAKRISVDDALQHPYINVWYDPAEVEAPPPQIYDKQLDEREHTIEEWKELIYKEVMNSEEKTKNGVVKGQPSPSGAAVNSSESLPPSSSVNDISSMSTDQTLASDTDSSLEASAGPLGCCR
SMILES,ΔTm MAPK10 (MAPK10) [°C],ΔTm CSNK1D (CSNK1D) [°C],ΔTm MAPK9 (MAPK9) [°C],ΔTm TTK (TTK) [°C],ΔTm CLK1 (CLK1) [°C],ΔTm BRD4 (BRD4) [°C],ΔTm EPHA5 (EPHA5) [°C],ΔTm PIM3 (PIM3) [°C],ΔTm FGFR2 (FGFR2) [°C],ΔTm AKT3 (AKT3) [°C],ΔTm TAF1 (TAF1) [°C],ΔTm UKL3 (UKL3) [°C],ΔTm RPS6KA1 (RPS6KA1) [°C],ΔTm CK2A2 (CK2A2) [°C],ΔTm CAMK2D (CAMK2D) [°C],ΔTm SRC (SRC) [°C],ΔTm FGFR3 (FGFR3) [°C]
"CC(C)OC(=O)c1cc(Nc2ccnc(NCc3ccc(NC(=O)OC(C)(C)C)cc3)n2)n[nH]1 [42d, isopropyl 3-((2-((4-((tert-butoxycarbonyl)amino)benzyl)amino)pyrimidin-4-yl)amino)-1H-pyrazole-5-carboxylate]",-3.0,0.8,-0.7,-0.1,0.0,-2.1,-0.6,-1.1,0.1,0.6,0.5,2.3,-0.3,1.1,-0.4,0.4,–
"CC(C)(C)OC(=O)Nc1ccc(CNc2nccc(Nc3cc(C(=O)OC(C)(C)C)[nH]n3)n2)cc1 [43d, tert-butyl 3-((2-((4-((tert-butoxycarbonyl)amino)benzyl)amino)pyrimidin-4-yl)amino)-1H-pyrazole-5-carboxylate]",-1.6,1.0,-1.4,-0.2,-0.5,-1.5,-2.7,-1.6,0.3,0.5,0.0,3.3,0.2,1.1,-0.1,0.6,–
"COC(=O)c1cc(Nc2ccnc(NCCOCCNC(=O)OC(C)(C)C)n2)[nH]n1 [21d, methyl 5-((2-((2-(2-((tert-butoxycarbonyl)amino)ethoxy)ethyl)amino)pyrimidin-4-yl)amino)-1H-pyrazole-3-carboxylate]",2.9,0.2,1.1,1.6,1.8,0.7,0.2,0.0,1.5,0.3,0.0,0.9,0.5,1.8,0.8,0.5,0.6
"N#CCc1ccc(Nc2nccc(Nc3cc(C4CC4)[nH]n3)n2)cc1 [compound 1, reference compound]",7.2,3.1,6.5,8.8,12.2,1.3,6.3,3.8,5.9,–,0.1,8.3,5.1,8.5,4.5,4.4,9.8
"COC(=O)c1cc(Nc2ccnc(NCc3ccc(NC(=O)OC(C)(C)C)cc3)n2)[nH]n1 [21i, methyl 5-((2-((4-((tert-butoxycarbonyl)amino)benzyl)amino)pyrimidin-4-yl)amino)-1H-pyrazole-3-carboxylate]",1.8,0.4,1.7,0.0,1.3,1.0,0.2,-0.4,0.2,-0.3,0.2,0.3,1.0,1.3,0.6,0.6,1.2
